US9206156B2, “Substituted indole derivatives” (GRÜNENTHAL GMBH, priority 2008, dated 2015)

Legend:
human μ-opiate receptor = molecular target: T1, human μ-opiate receptor (Homo sapiens, UniProt P35372); test: μ-opiate receptor binding assay with [3H] naloxone (WGA-SPA beads); settings: 1 μmol/l test substance, 1 nmol/l [3H] naloxone, CHO-K1 cell membranes expressing human μ-opiate receptor
T1 construct: purchased NEN, Zaventem, Belgium RB-HOM; host or cells: CHO-K1 cells (membrane preparation)
Description: The receptor affinity to the human μ-opiate receptor was determined in a homogeneous batch in microtitre plates. To this end, dilution series of the substituted indole derivative to be tested were incubated for 90 minutes at room temperature with a receptor membrane preparation (15-40 μg protein per 250 μl incubation batch) of CHO-K1 cells, which express the human μ-opiate receptor (RB—HOM receptor membrane preparation from NEN, Zaventem, Belgium), in the presence of 1 nmol/l of the radioactive ligand [^3H] naloxone (NET719, NEN, Zaventem, Belgium) and 1 mg of WGA-SPA beads (wheat germ agglutinin SPA beads from Amersham/Pharmacia, Freiburg, Germany) in a total volume of 250 μl. 50 mmol/l tris-HCl supplemented with 0.05 wt. % sodium azide and 0.06 wt. % bovine serum albumin were used as the incubation buffer. In order to determine the non-specific binding, 25 μmol/l of naloxone were also added. At the end of the ninety-minute incubation period the microtitre plates were centrifuged for 20 minutes at 1000 g and the radioactivity was measured in a β counter (Microbeta-Trilux, PerkinElmer Wallac, Freiburg, Germany). The percentage displacement of the radioactive ligand from its binding to the human μ-opiate receptor was determined at a test substance concentration of 1 μmol/l and stated as the percentage inhibition (% inhibition) of the specific binding. In some cases the percentage displacement due to differing concentrations of the compounds having the general formula I to be tested was used to calculate the IC50 inhibition concentrations which bring about a 50-percent displacement of the radioactive ligand. Ki values for the test substances were obtained by extrapolation using the Cheng-Prusoff equation.

ORL1 receptor = molecular target: T2, ORL1 receptor (Homo sapiens, UniProt P41146); test: ORL1 receptor binding assay with 3H-nociceptin/orphanin FQ (WGA-SPA beads); settings: c=1 μM test substance; 0.5 nM 3H-nociceptin/orphanin FQ; membranes of recombinant CHO-ORL1 cells
T2 construct: expressed in transfected cells; host or cells: CHO (recombinant CHO-ORL1 cells), membranes
Description: Measurement of ORL1 Binding
The cyclohexane derivatives having the general formula I were investigated in a receptor binding assay with ^3H-nociceptin/orphanin FQ with membranes of recombinant CHO—ORL1 cells. This test system was conducted in accordance with the method described by Ardati et al. (Mol. Pharmacol., 51, 1997, p. 816-824). The concentration of ^3H-nociceptin/orphanin FQ in these tests was 0.5 nM. The binding assays were carried out with 20 μg amounts of membrane protein per 200 μl batch in 50 mM Hepes, pH 7.4, 10 mM MgCl2 and 1 mM EDTA. The binding to the ORL1 receptor was determined using 1 mg amounts of WGA-SPA beads (Amersham-Pharmacia, Freiburg, Germany), by incubation of the batch for one hour at room temperature and subsequent measurement in a Trilux scintillation counter (Wallac, Finland). The affinity is given in Table 1 as the nanomolar Ki value or in % inhibition at c=1 μM.

T2 sequence (P41146 whole entry): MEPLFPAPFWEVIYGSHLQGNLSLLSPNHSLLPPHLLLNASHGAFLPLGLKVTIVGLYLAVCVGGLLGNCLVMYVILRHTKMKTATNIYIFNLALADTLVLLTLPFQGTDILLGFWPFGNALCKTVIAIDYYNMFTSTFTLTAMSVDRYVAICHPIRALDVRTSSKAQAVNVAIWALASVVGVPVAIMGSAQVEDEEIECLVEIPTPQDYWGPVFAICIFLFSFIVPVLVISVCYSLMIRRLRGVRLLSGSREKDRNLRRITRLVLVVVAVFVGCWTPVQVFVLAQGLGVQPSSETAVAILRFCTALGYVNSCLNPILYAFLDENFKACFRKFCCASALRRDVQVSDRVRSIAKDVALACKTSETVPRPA
T1 sequence (P35372 whole entry): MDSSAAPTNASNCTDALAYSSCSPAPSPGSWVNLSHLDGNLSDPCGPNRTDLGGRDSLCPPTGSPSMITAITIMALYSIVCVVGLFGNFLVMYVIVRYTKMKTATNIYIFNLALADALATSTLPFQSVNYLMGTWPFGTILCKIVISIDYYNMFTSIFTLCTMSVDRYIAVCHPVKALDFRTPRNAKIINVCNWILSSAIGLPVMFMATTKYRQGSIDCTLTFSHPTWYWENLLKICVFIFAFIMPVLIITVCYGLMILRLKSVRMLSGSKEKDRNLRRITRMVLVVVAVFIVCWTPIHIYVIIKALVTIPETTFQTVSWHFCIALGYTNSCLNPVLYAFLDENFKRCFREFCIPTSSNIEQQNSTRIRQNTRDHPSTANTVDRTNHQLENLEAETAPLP

Q: Which results are given for `COc1ccc2[nH]cc(CNCCN3CCC(c4cccs4)(N(C)C)CC3)c2c1` [Example 76, 1-(2-((5-Methoxy-1H-indol-3-yl)methylamino)ethyl)-N,N-dimethyl-4-(thiophen-2-yl)pipendin-4-amine]?
A: % Inhibition (μ) at 1 μM (human μ-opiate receptor): 99%; % Inhibition (ORL1) at 1 μM (ORL1 receptor): 93%

Q: For `CN(CCCN1CCC(c2ccccc2)(N(C)C)CC1)C(=O)CCc1cn(C)c2ccccc12` [Example 50, N-(3-(4-(Dimethylamino)-4-phenylpiperidin-1-yl)propyl)-N-methyl-3-(1-methyl-1H-indol-3-yl)propanamide], which inhibition at 1 µM (human μ-opiate receptor) is on record?
A: Its inhibition at 1 µM is 79%.

Q: What about the inhibition at 1 µM (ORL1 receptor) of the same compound?
A: Its inhibition at 1 µM is 39%.

Q: For `CC(C)c1ccc2c(CN(C)CCN3CCC(c4ccccc4)(N(C)C)CC3)c[nH]c2c1` [Example 180, 1-(2-(((6-isopropyl-1H-indol-3-yl)methyl)(methyl)amino)ethyl)-N,N-dimethyl-4-phenylpiperidin-4-amine], which inhibition at 1 µM (human μ-opiate receptor) is on record?
A: Its inhibition at 1 µM is 95%.

Q: And the inhibition at 1 µM (ORL1 receptor)?
A: Its inhibition at 1 µM is 96%.

Q: How did the inhibition at 1 µM (human μ-opiate receptor) turn out when `CN(C)C1(c2ccccc2)CCN(C(=O)CCNC(=O)c2ccc3ccn(C)c3c2)CC1` [Example 99, N-(3-(4-(dimethylamino)-4-phenylpiperidin-1-yl)-3-oxopropyl)-1-methyl-1H-indole-6-carboxamide] was run?
A: The inhibition at 1 µM was 87%.

Q: What about the inhibition at 1 µM (ORL1 receptor) of the same compound?
A: Its inhibition at 1 µM is 71%.

Q: Which inhibition at 1 µM (human μ-opiate receptor) does the source give for `CN(CCN1CCC(c2ccccc2)(N(C)C)CC1)C(=O)CCc1c[nH]c2ccccc12` [Example 4, N-(2-(4-(Dimethylamino)-4-phenylpiperidin-1-yl)ethyl)-3-(1H-indol-3-yl)-N-methylpropanamide] here?
A: The inhibition at 1 µM was 93%.

Q: What about the inhibition at 1 µM (ORL1 receptor) of the same compound?
A: Its inhibition at 1 µM is 86%.

Q: Which results are given for `CN(CCCN1CCC(c2ccccc2)(N(C)C)CC1)C(=O)Cc1c[nH]c2ccc(Br)cc12` [Example 63, 2-(5-Bromo-1H-indol-3-yl)-N-(3-(4-(dimethylamino)-4-phenylpiperidin-1-yl)propyl)-N-methylacetamide]?
A: inhibition at 1 µM (human μ-opiate receptor): 81%; inhibition at 1 µM (ORL1 receptor): 41%

Q: Which inhibition at 1 µM (human μ-opiate receptor) does the source give for `CC(C)C(CC(=O)N(C)CCCN1CCC(c2ccccc2)(N(C)C)CC1)c1c[nH]c2ccccc12` (stereo not shown) [Example 34, N-(3-(4-(Dimethylamino)-4-phenylpiperidin-1-yl)propyl)-3-(1H-indol-3-yl)-N,4-dimethylpentanamide] here?
A: Its inhibition at 1 µM is 88%.

Q: What about the inhibition at 1 µM (ORL1 receptor) of the same compound?
A: The inhibition at 1 µM was 43%.

Q: With `CCCCC1(N(C)C)CCN(CCN(C)C(=O)CC(c2c[nH]c3ccccc23)C(C)C)CC1` (stereo not shown) [Example 33, N-(2-(4-Butyl-4-(dimethylamino)piperidin-1-yl)ethyl)-3-(1H-indol-3-yl)-N,4-dimethylpentanamide] as the compound, how does the inhibition at 1 µM (human μ-opiate receptor) read?
A: The inhibition at 1 µM was 94%.

Q: What about the inhibition at 1 µM (ORL1 receptor) of the same compound?
A: The inhibition at 1 µM was 27%.

Q: How did the “% Inhibition (μ) at 1 μM” value (human μ-opiate receptor; 1 µM) turn out when `CN(CCN1CCC(c2ccccc2)(N(C)C)CC1)C(=O)Cc1c[nH]c2cc(F)ccc12` [Example 90, N-(2-(4-(dimethylamino)-4-phenylpiperidin-1-yl)ethyl)-2-(6-fluoro-1H-indol-3-yl)-N-methylacetamide] was run?
A: Its value is 99%.

Q: What about the “% Inhibition (ORL1) at 1 μM” value (ORL1 receptor) of the same compound?
A: The value was 90%.

Q: For `CCCCC1(N(C)C)CCN(CCN(C)C(=O)CCc2c[nH]c3ccccc23)CC1` [Example 60, N-(2-(4-Butyl-4-(dimethylamino)piperidin-1-yl)ethyl)-3-(1H-indol-3-yl)-N-methylpropanamide], which inhibition at 1 µM (human μ-opiate receptor) is on record?
A: The inhibition at 1 µM was 81%.

Q: And the inhibition at 1 µM (ORL1 receptor)?
A: The inhibition at 1 µM was 45%.

Q: With `COc1ccc2c(CN3CCCC(C(=O)N4CCC(c5ccccc5)(N(C)C)CC4)C3)c(C)n(C)c2c1` (stereo not shown) [Example 176, (4-(dimethylamino)-4-phenylpiperidin-1-yl)(1-((6-methoxy-1,2-dimethyl-1H-indol-3-yl)methyl)piperidin-3-yl)methanone] as the compound, how does the inhibition at 1 µM (human μ-opiate receptor) read?
A: The inhibition at 1 µM was 61%.

Q: And the inhibition at 1 µM (ORL1 receptor)?
A: Its inhibition at 1 µM is 53%.

Q: Which inhibition at 1 µM (human μ-opiate receptor) does the source give for `CN(C)C1(c2cccs2)CCN(C(=O)CC(NC(=O)Cc2c[nH]c3cc(F)ccc23)c2ccccc2)CC1` (stereo not shown) [Example 93, N-(3-(4-(dimethylamino)-4-(thiophen-2-yl)piperidin-1-yl)-3-oxo-1-phenylpropyl)-2-(6-fluoro-1H-indol-3-yl)acetamide] here?
A: The inhibition at 1 µM was 97%.

Q: What about the inhibition at 1 µM (ORL1 receptor) of the same compound?
A: Its inhibition at 1 µM is 88%.

Q: What does the source list for `COc1ccc2c(c1)c(CNCCN1CCC(c3cccs3)(N(C)C)CC1)c(C)n2Cc1ccccc1` [Example 78, 1-(2-((1-Benzyl-5-methoxy-2-methyl-1H-indol-3-yl)methylamino)ethyl)-N,N-dimethyl-4-(thiophen-2-yl)piperidin-4-amine]?
A: inhibition at 1 µM (human μ-opiate receptor): 93%; inhibition at 1 µM (ORL1 receptor): 62%

Q: How did the inhibition at 1 µM (human μ-opiate receptor) turn out when `CN(C)C1(c2cccs2)CCN(C(=O)CC(NCc2c[nH]c3ccccc23)c2ccccc2)CC1` (stereo not shown) [Example 164, 3-((1H-indol-3-yl)methylamino)-1-(4-(dimethylamino)-4-(thiophen-2-yl)piperidin-1-yl)-3-phenylpropan-1-one] was run?
A: Its inhibition at 1 µM is 96%.

Q: What about the inhibition at 1 µM (ORL1 receptor) of the same compound?
A: The inhibition at 1 µM was 82%.

Q: What does the source list for `CCCCC1(N(C)C)CCN(CCN(C)C(=O)CCc2cn(C)c3ccccc23)CC1` [Example 49, N-(2-(4-Butyl-4-(dimethylamino)piperidin-1-yl)ethyl)-N-methyl-3-(1-methyl-1H-indol-3-yl)propanamide]?
A: inhibition at 1 µM (human μ-opiate receptor): 52%; inhibition at 1 µM (ORL1 receptor): 17%

Q: For `CN(CCN1CCC(c2ccccc2)(N(C)C)CC1)Cc1ccc2[nH]ccc2c1` [Example 68, 1-(2-(((1H-Indol-5-yl)methyl)(methyl)amino)ethyl)-N,N-dimethyl-4-phenylpiperidin-4-amine], which inhibition at 1 µM (human μ-opiate receptor) is on record?
A: The inhibition at 1 µM was 93%.

Q: What about the inhibition at 1 µM (ORL1 receptor) of the same compound?
A: Its inhibition at 1 µM is 65%.

Q: What does the source list for `CN(C)C1(c2cccs2)CCN(C(=O)CC(NCc2ccc3[nH]ccc3c2)c2ccccc2)CC1` (stereo not shown) [Example 165, 3-((1H-indol-5-yl)methylamino)-1-(4-(dimethylamino)-4-(thiophen-2-yl)piperidin-1-yl)-3-phenylpropan-1-one]?
A: inhibition at 1 µM (human μ-opiate receptor): 92%; inhibition at 1 µM (ORL1 receptor): 47%

Q: `CN(CCN1CCC(c2ccccc2)(N(C)C)CC1)C(=O)c1ccc2cc[nH]c2c1` [Example 1, N-(2-(4-(Dimethylamino)-4-phenylpiperidin-1-yl)ethyl)-N-methyl-1H-indol-6-amide] was tested. Which “% Inhibition (μ) at 1 μM” value (human μ-opiate receptor; 1 µM) did it give?
A: Its value is 94%.

Q: And the “% Inhibition (ORL1) at 1 μM” value (ORL1 receptor)?
A: Its value is 80%.

Q: How did the inhibition at 1 µM (human μ-opiate receptor) turn out when `CCCCC1(N(C)C)CCN(CCN(C)Cc2c[nH]c3ccc(Br)cc23)CC1` [Example 154, 1-(2-(((5-bromo-1H-indol-3-yl)methyl)(methyl)amino)ethyl)-4-butyl-N,N-dimethylpiperidin-4-amine] was run?
A: The inhibition at 1 µM was 94%.

Q: What about the inhibition at 1 µM (ORL1 receptor) of the same compound?
A: Its inhibition at 1 µM is 28%.

Q: Which inhibition at 1 µM (human μ-opiate receptor) does the source give for `CN(C)C1(c2ccccc2)CCN(C(=O)C2CCCN(Cc3c(-c4ccc(F)cc4)[nH]c4ccccc34)C2)CC1` (stereo not shown) [Example 177, (4-(dimethylamino)-4-phenylpiperidin-1-yl)(1-((2-(4-fluorophenyl)-1H-indol-3-yl)methyl)piperidin-3-yl)methanone] here?
A: The inhibition at 1 µM was 94%.

Q: What about the inhibition at 1 µM (ORL1 receptor) of the same compound?
A: Its inhibition at 1 µM is 51%.

Q: How did the inhibition at 1 µM (human μ-opiate receptor) turn out when `CN(CCCN1CCC(c2ccccc2)(N(C)C)CC1)C(=O)C1CCCc2c1[nH]c1ccc(Cl)cc21` (stereo not shown) [Example 35, 6-Chloro-N-(3-(4-(dimethylamino)-4-phenylpiperidin-1-yl)propyl)-N-methyl-2,3,4,9-tetrahydro-1H-carbazole-1-carboxamide] was run?
A: Its inhibition at 1 µM is 57%.

Q: What about the inhibition at 1 µM (ORL1 receptor) of the same compound?
A: The inhibition at 1 µM was 79%.

Q: What does the source list for `CN(C)C1(c2ccccc2)CCN(C(=O)C2CCCN(C(=O)Cc3c[nH]c4cc(F)ccc34)C2)CC1` (stereo not shown) [Example 124, 1-(3-(4-(dimethylamino)-4-phenylpiperidine-1-carbonyl)piperidin-1-yl)-2-(6-fluoro-1H-indol-3-yl)ethanone]?
A: inhibition at 1 µM (human μ-opiate receptor): 64%; inhibition at 1 µM (ORL1 receptor): 43%

Q: With `CN(C)C1(c2ccccc2)CCN(C(=O)C2CCCN(Cc3c[nH]c4ccccc34)C2)CC1` (stereo not shown) [Example 151, (1-((1H-indol-3-yl)methyl)piperidin-3-yl)(4-(dimethylamino)-4-phenylpiperidin-1-yl)methanone] as the compound, how does the inhibition at 1 µM (human μ-opiate receptor) read?
A: Its inhibition at 1 µM is 83%.

Q: And the inhibition at 1 µM (ORL1 receptor)?
A: The inhibition at 1 µM was 52%.
